Here are results for nine molecules from patent US10004701B2, “Methods and compositions for treating infection” (UNIVERSITY OF ROCHESTER, priority 2012, dated 2018).

Experiment in all cases: AK assay 384-well format, Prestwick library screening
One experiment relates to P. aeruginosa. Type of experiment: cell-based, Pseudomonas aeruginosa. The conditions noted are these: 50 μM final drug concentration; for fold induction at 50 µM: Pseudomonas aeruginosa, 3 h.
In experiment [1] the test system is A. baumannii strain 98-37-09. It counts as cell-based, Acinetobacter baumannii. The conditions noted are these: 50 μM final drug concentration; for fold induction at 50 µM: Acinetobacter baumannii, 983709, 3 h.
For the next experiment, the system named is E. cloacae. Type of experiment: cell-based, Enterobacter cloacae. Conditions: 50 μM final drug concentration; for fold induction at 50 µM: Enterobacter cloacae, 3 h.
In the next experiment the test system is K. pneumoniae. It counts as cell-based, Klebsiella pneumoniae. Conditions: 50 μM final drug concentration; for fold induction at 50 µM: Klebsiella pneumoniae, 3 h.
A further experiment has as its system E. faecium. Type of experiment: cell-based, Enterococcus faecium. The conditions noted are these: 50 μM final drug concentration; for fold induction at 50 µM: Enterococcus faecium, 3 h.
Another experiment deals with E. coli. It counts as cell-based, Escherichia coli. The conditions noted are these: 50 μM final drug concentration; for fold induction at 50 µM: Escherichia coli, 3 h.
The subject of experiment [2] is S. aureus strain USA300-0114. Type of experiment: cell-based, Staphylococcus aureus. The conditions noted are these: 50 μM final drug concentration; for fold induction at 50 µM: Staphylococcus aureus, USA300, 3 h.
Setting [3] is: planktonic P. aeruginosa, positive cutoff 3-fold increase, read-out: AK-based Prestwick library screening result, P. aeruginosa (fold increase in extracellular AK activity).
The mark [4] stands for this setting: planktonic A. baumannii, positive cutoff 3-fold increase, read-out: AK-based Prestwick library screening result, A. baumannii (fold increase in extracellular AK activity).
[5] abbreviates: planktonic E. cloacae, positive cutoff 3-fold increase, read-out: AK-based Prestwick library screening result, E. cloacae (fold increase in extracellular AK activity).
[6] abbreviates: planktonic K. pneumoniae, positive cutoff 3-fold increase, read-out: AK-based Prestwick library screening result, K. pneumoniae (fold increase in extracellular AK activity).
The mark [7] stands for this setting: planktonic E. faecium, positive cutoff 3-fold increase, read-out: AK-based Prestwick library screening result, E. faecium (fold increase in extracellular AK activity).
Where [8] appears, read: planktonic E. coli, positive cutoff 3-fold increase, read-out: AK-based Prestwick library screening result, E. coli (fold increase in extracellular AK activity).
Setting [9] is: planktonic S. aureus, positive cutoff 3-fold increase, read-out: AK-based Prestwick library screening result, S. aureus (fold increase in extracellular AK activity).
The mark [10] stands for this setting: planktonic, cutoff for positive 3-fold increase.

Where a name gives a salt, the structure may show the parent alone. Read-outs that look alike come from different tables or passages of the source.

Regarding `Cc1nccn1CC1CCc2c(c3ccccc3n2C)C1=O` (stereo not drawn) [Ondansetron Hydrochloride], the fold induction at 50 µM came to 0.7 in the experiment with P. aeruginosa (setting [3]); 0.7 in experiment [1] (setting [4]); 0.8 in the experiment on E. cloacae (setting [5]); 0.6 in the experiment on K. pneumoniae (setting [6]); 1.1 with E. faecium (setting [7]); 0.7 with E. coli (setting [8]). The fold induction at 50 µM in experiment [2] (setting [9]) came out at 0.6.
Take `O=C(O)[C@H](O)[C@@H](O)[C@H](O[C@@H]1O[C@H](CO)[C@H](O)[C@H](O)[C@H]1O)[C@H](O)CO` [Lactobionic acid]: the “AK-based Prestwick Library Screening Results, P. aeruginosa (fold increase in extracellular AK activity)” value with P. aeruginosa (setting [10]) amounted to 1.0. Also, the “AK-based Prestwick Library Screening Results, A. baumannii (fold increase in extracellular AK activity)” value in experiment [1] (setting [10]) turned out to be 1.1. Besides, in the experiment with E. cloacae (setting [10]), the “AK-based Prestwick Library Screening Results, E. cloacae (fold increase in extracellular AK activity)” value stood at 1.2. Besides, the “AK-based Prestwick Library Screening Results, K. pneumoniae (fold increase in extracellular AK activity)” value in the experiment on K. pneumoniae (setting [10]) is given as 0.9. In the experiment with E. faecium (setting [10]), the “AK-based Prestwick Library Screening Results, E. faecium (fold increase in extracellular AK activity)” value was 1.0. For the same molecule, the “AK-based Prestwick Library Screening Results, E. coli (fold increase in extracellular AK activity)” value with E. coli (setting [10]) worked out at 1.0. For the same molecule, the “AK-based Prestwick Library Screening Results, S. aureus (fold increase in extracellular AK activity)” value in experiment [2] (setting [10]) is listed as 0.8.
As to `COc1ccc(CN(CCN(C)C)c2ccccn2)cc1` [Pyrilamine maleate], the fold induction at 50 µM was 1.1 with P. aeruginosa (planktonic P. aeruginosa, 384-well, […], read-out: AK-based Prestwick Library Screening Results: P. aeruginosa (increase in extracellular AK activity)); 1.1 in experiment [1] (planktonic A. baumannii, 384-well, […], read-out: AK-based Prestwick Library Screening Results: A. baumannii (increase in extracellular AK activity)); 1.4 in the experiment with E. cloacae (planktonic E. cloacae, 384-well, […], read-out: AK-based Prestwick Library Screening Results: E. cloacae (increase in extracellular AK activity)); 1 with K. pneumoniae (planktonic K. pneumoniae, 384-well, […], read-out: AK-based Prestwick Library Screening Results: K. pneumoniae (increase in extracellular AK activity)); 1.2 in the experiment on E. faecium (planktonic E. faecium, 384-well, […], read-out: AK-based Prestwick Library Screening Results: E. faecium (increase in extracellular AK activity)); 1.4 in the experiment with E. coli (planktonic E. coli, 384-well, […], read-out: AK-based Prestwick Library Screening Results: E. coli (increase in extracellular AK activity)). Also, in experiment [2] (planktonic S. aureus, 384-well, […], read-out: AK-based Prestwick Library Screening Results: S. aureus (increase in extracellular AK activity)), the fold induction at 50 µM was found to be 1.4.
As to `CC(C)NCC(O)c1ccc(NS(C)(=O)=O)cc1` (stereo not drawn) [Sotalol hydrochloride], the fold induction at 50 µM in the experiment on P. aeruginosa (cutoff for positive-scoring molecules 3-fold increase, read-out: AK-based Prestwick Library Screening Results, P. aeruginosa (fold increase in extracellular AK activity)) is 0.4; in experiment [1] (cutoff for positive-scoring molecules 3-fold increase, read-out: AK-based Prestwick Library Screening Results, A. baumannii (fold increase in extracellular AK activity)), 0.5; with E. cloacae (cutoff for positive-scoring molecules 3-fold increase, read-out: AK-based Prestwick Library Screening Results, E. cloacae (fold increase in extracellular AK activity)), 0.4; with K. pneumoniae (cutoff for positive-scoring molecules 3-fold increase, read-out: AK-based Prestwick Library Screening Results, K. pneumoniae (fold increase in extracellular AK activity)), 0.5; with E. faecium (cutoff for positive-scoring molecules 3-fold increase, read-out: AK-based Prestwick Library Screening Results, E. faecium (fold increase in extracellular AK activity)), 0.8; with E. coli (cutoff for positive-scoring molecules 3-fold increase, read-out: AK-based Prestwick Library Screening Results, E. coli (fold increase in extracellular AK activity)) it was 0.4. Further, the fold induction at 50 µM in experiment [2] (cutoff for positive-scoring molecules 3-fold increase, read-out: AK-based Prestwick Library Screening Results, S. aureus (fold increase in extracellular AK activity)) was 0.4.
In the case of `Cc1cc(/C=C/c2ccc3cc(N(C)C)ccc3[n+]2C)c(C)n1-c1ccccc1` [Pyrvinium pamoate], the fold induction at 50 µM in the experiment on P. aeruginosa (setting [3]) is 0.7; in experiment [1] (setting [4]), 0.9; in the experiment on E. cloacae (setting [5]), 13.2; in the experiment with K. pneumoniae (setting [6]), 0.8; with E. faecium (setting [7]), 1.5; in the experiment with E. coli (setting [8]) it was 0.8. Further, the fold induction at 50 µM in experiment [2] (setting [9]) was determined as 1.4.
Turning to `CC[C@]12CCCN3CCc4c(n(c5ccccc45)[C@](O)(C(=O)OC)C1)[C@@H]32` [Epivincamine], the “AK-based Prestwick Library Screening Results, P. aeruginosa (fold increase in extracellular AK activity)” value with P. aeruginosa (planktonic, […]) is on record as 1.2. Further, the “AK-based Prestwick Library Screening Results, A. baumannii (fold increase in extracellular AK activity)” value in experiment [1] (planktonic, […]) is listed as 1.2. In addition, the “AK-based Prestwick Library Screening Results, E. cloacae (fold increase in extracellular AK activity)” value with E. cloacae (planktonic, […]) is listed as 1.6. In the experiment on K. pneumoniae (planktonic, […]), the “AK-based Prestwick Library Screening Results, K. pneumoniae (fold increase in extracellular AK activity)” value is on record as 1.2. The “AK-based Prestwick Library Screening Results, E. faecium (fold increase in extracellular AK activity)” value with E. faecium (planktonic, […]) is given as 1.0. In the experiment with E. coli (planktonic, […]), the “AK-based Prestwick Library Screening Results, E. coli (fold increase in extracellular AK activity)” value was determined as 1.3. Further, in experiment [2] (planktonic, […]), the “AK-based Prestwick Library Screening Results, S. aureus (fold increase in extracellular AK activity)” value is 1.0.
Take `Cc1cc(C2CCCCC2)n(O)c(=O)c1.NCCO` [Ciclopirox ethanolamine]: the “AK-based Prestwick Library Screening Results, P. aeruginosa (fold increase in extracellular AK activity)” value with P. aeruginosa (setting [10]) was 1.0. Moreover, in experiment [1] (setting [10]), the “AK-based Prestwick Library Screening Results, A. baumannii (fold increase in extracellular AK activity)” value amounted to 1.2. Moreover, the “AK-based Prestwick Library Screening Results, E. cloacae (fold increase in extracellular AK activity)” value with E. cloacae (setting [10]) is 1.2. Further, in the experiment with K. pneumoniae (setting [10]), the “AK-based Prestwick Library Screening Results, K. pneumoniae (fold increase in extracellular AK activity)” value was determined as 0.9. Moreover, the “AK-based Prestwick Library Screening Results, E. faecium (fold increase in extracellular AK activity)” value with E. faecium (setting [10]) turned out to be 1.6. In addition, in the experiment with E. coli (setting [10]), the “AK-based Prestwick Library Screening Results, E. coli (fold increase in extracellular AK activity)” value is 1.1. The “AK-based Prestwick Library Screening Results, S. aureus (fold increase in extracellular AK activity)” value in experiment [2] (setting [10]) worked out at 0.7.
For `CCCCc1oc2ccccc2c1C(=O)c1cc(I)c(OCCN(CC)CC)c(I)c1` [Amiodarone hydrochloride], the fold induction at 50 µM was determined as 0.5 in the experiment on P. aeruginosa (planktonic P. aeruginosa, 384-well, cutoff for positive-scoring molecules 3-fold increase, read-out: AK-based Prestwick Library Screening Results: P. aeruginosa (increase in extracellular AK activity)); 2.2 in experiment [1] (planktonic A. baumannii, 384-well, cutoff for positive-scoring molecules 3-fold increase, read-out: AK-based Prestwick Library Screening Results: A. baumannii (increase in extracellular AK activity)); 0.5 with E. cloacae (planktonic E. cloacae, 384-well, cutoff for positive-scoring molecules 3-fold increase, read-out: AK-based Prestwick Library Screening Results: E. cloacae (increase in extracellular AK activity)); 0.6 in the experiment on K. pneumoniae (planktonic K. pneumoniae, 384-well, cutoff for positive-scoring molecules 3-fold increase, read-out: AK-based Prestwick Library Screening Results: K. pneumoniae (increase in extracellular AK activity)); 1.7 with E. faecium (planktonic E. faecium, 384-well, cutoff for positive-scoring molecules 3-fold increase, read-out: AK-based Prestwick Library Screening Results: E. faecium (increase in extracellular AK activity)); 0.7 in the experiment with E. coli (planktonic E. coli, 384-well, cutoff for positive-scoring molecules 3-fold increase, read-out: AK-based Prestwick Library Screening Results: E. coli (increase in extracellular AK activity)). The fold induction at 50 µM in experiment [2] (planktonic S. aureus, 384-well, cutoff for positive-scoring molecules 3-fold increase, read-out: AK-based Prestwick Library Screening Results: S. aureus (increase in extracellular AK activity)) turned out to be 0.7.
`C[C@H]1C(=O)O[C@@H]2CCN3CC=C(COC(=O)[C@](C)(O)[C@]1(C)O)[C@H]23` [Monocrotaline]: the fold induction at 50 µM with P. aeruginosa (planktonic, […], read-out: AK-based Prestwick Library Screening Results, P. aeruginosa (fold increase in extracellular AK activity)) came out at 1.2; in experiment [1] (planktonic, […], read-out: AK-based Prestwick Library Screening Results, A. baumannii (fold increase in extracellular AK activity)) it was 1.2; in the experiment with E. cloacae (planktonic, […], read-out: AK-based Prestwick Library Screening Results, E. cloacae (fold increase in extracellular AK activity)) it was 1.3; in the experiment on K. pneumoniae (planktonic, […], read-out: AK-based Prestwick Library Screening Results, K. pneumoniae (fold increase in extracellular AK activity)), 1; in the experiment on E. faecium (planktonic, […], read-out: AK-based Prestwick Library Screening Results, E. faecium (fold increase in extracellular AK activity)), 1.1; in the experiment on E. coli (planktonic, […], read-out: AK-based Prestwick Library Screening Results, E. coli (fold increase in extracellular AK activity)), 1.3. In experiment [2] (planktonic, […], read-out: AK-based Prestwick Library Screening Results, S. aureus (fold increase in extracellular AK activity)), the fold induction at 50 µM was found to be 1.
